The text below walks through data of article PMC7728344, “Pharmacokinetic Characterization of (Poly)phenolic Metabolites in Human Plasma and Urine after Acute and Short-Term Daily Consumption of Mango Pulp” (Molecules, 2020).

Where two headings read alike, the source gives them in different places.

The nature of data set [1]: Concentration of (poly)phenolic metabolites in fasting urine at baseline, 24 h after single MP beverage and 15th day after 14-day MP intake (UHPLC-QQQ-MS). To be noted: for concentration at 15 day / concentration at 0 h / concentration at 24 h: human, urine, oral; for concentration at 0 h / concentration at 24 h: 500 g. The text has this: The acute trial was a randomized, 3 arm, within-subject crossover study design (Figure 5A). The trial initiated with 3 days of food record collection to assess background (pre-study) dietary intake followed by counseling to adhere to a diet devoid of mango or its parts and relatively low in polyphenol-rich beverages/foods, which was maintained throughout the duration of the trial. […] In general, subjects were encouraged to follow their “usual” diet with the exception of foods/beverages that may interfere with the outcomes of the study. Food intake diaries and, phone call and email reminders helped subjects maintain compliance throughout the study period. After an initial 7-day run-in period on the limited polyphenol diet, subjects were assigned to a randomization sequence providing 1 of 3 study test beverages (recipes provided in Appendix A, Table A3) on three separate days in a random order: MP (500 g), MP (500 g) + VC (100 mg) or VC (100 mg) beverages. On each study day subjects arrived fasted and well hydrated. After standard admission procedures were completed (e.g., review of compliance with dietary requirements for 3 days prior to study day, dinner meal intake, usual sleep patterns), a catheter was placed by a registered nurse in subjects’ non-dominant arm and a fasting/baseline blood sample was collected (0 h). Subjects were provided with a standard breakfast meal 2 h after the study beverages. The breakfast meal was comprised of a buttermilk biscuit with butter and jelly, and scrambled egg white with shredded white cheddar cheese. After the 6 h blood collection, subjects ate a low polyphenol lunch consisting of dry roasted peanuts and fresh peeled cucumber with ranch dressing (Appendix A, Table A3).
Spot urine samples were collected in urine collection cups, immediately placed on ice and then aliquoted into individual cryovials. All the samples were stored at −80 °C until analysis.
A 14-day feeding trial was conducted with the MP only to study the effect of repetitive intake of MP on (poly)phenolic metabolite profiles. Upon completion of the acute trial, subjects were instructed to continue on the low polyphenolic diet for 2 weeks while consuming MP beverages (provided by CNRC) daily in the morning (250 g MP + 50 g water) and evening (250 g MP + 50 g water). On day 14, subjects consumed both beverages (500 g of MP in total) in the morning and reported to the CNRC on the 15th day after an overnight fast to provide a fasting blood and urine sample (Figure 5B). Blood and urine samples were collected as described above and stored at −80 °C until analysis.
The supernatant was collected and filtered through 0.2 µm polypropylene syringe filter before HPLC analysis.
The ESI conditions were the same as those used in the UHPLC-Q-TOF analysis. The quantification of the compounds was conducted by multiple-reaction monitoring (MRM) transitions. Spectra were recorded in both positive- and negative-ion mode with capillary voltage of 4500 V and drying gas flow rate of 9 L/min at 200 °C. The sheath gas temperature and flow rate were 300 °C and 11 L/min, respectively. Standards were optimized for collision energies, fragmentor voltages and MRM transitions using Mass Hunter Optimizer. The MRM transition for metabolites were created based on the results from UHPLC-Q-TOF-MS. Standards for plasma analysis were prepared in blank plasma (charcoal-stripped human plasma obtained from Bioreclamation IVT) for matrix match and for urine analysis were prepared in SMP.
The flow rate was maintained at 0.4 mL/min and the injection volume was 5 μL. The mobile phase consisted of acidified water (0.1% formic acid) (A) and acidified acetonitrile (0.1% formic acid) (B). The gradient for the separation of compounds was as follows: 5 to 5% B from 0 to 1 min; 10% B at 3 min; 15% B at 7 min; 15% B at 9 min; 20% B at 10 min; 20% B at 11 min; 25% B at 12 min; 30% B at 13 min; 30% B at 14 min; 95% B at 15 min; and back to 5% B at 16 min.

The next data set in a line: clinical. The class given is in vivo, human. Set-up: AUC0–24h: concentration or dose not given beside the values. Here is the method: SPE procedure was conducted to extract and concentrate the (poly)phenolic compounds and their metabolites from the plasma samples. Briefly, plasma samples were thawed on ice and 500 µL plasma was diluted with 1.5 mL of 0.1% formic acid in water with addition of internal standards (2-methylhippuric acid (2 ng/mL), phloridizin (1 ng/mL)) before being loaded on preconditioned SPE cartridges. The cartridges were washed with 0.1% formic acid in water (1 mL) after loading with plasma samples. The elution of the compounds was achieved by 0.1% formic acid in methanol (1 mL) and the eluent was dried under nitrogen gas at room temperature. […] Supernatant was collected in amber HPLC vials before analysis.
The absorption and elimination of 11 major mango metabolites over 24 h was determined after MP, MP + VC, and VC intake. The plasma concentration/area at each time point was determined by the mean of 13 subjects. The time vs. concentration curves and the time vs. area curves were created using GraphPad Prism (version 8.2.1). […] Tmax is the time (h) when Cmax was achieved. Wilcoxon signed-rank test was used for Tmax analysis due to non-normal distribution. Area under the plasma concentration time curve (AUC0−24h, nmol·h/L) was calculated by the linear trapezoidal method using Microsoft Excel 2013, version 15 [63]. […]

Where [2] appears, read: human plasma, 0−24 h, after VC (vitamin C 100 mg) beverage, mean ± standard error, read-out: Cmax.
[3] abbreviates: human plasma, after VC beverage, mean ± standard error.
Where [4] appears, read: human plasma, after MP + VC beverage, mean ± standard error.

Regarding `O=C(O)c1cccc(O)c1O` [2,3-Dihydroxybenzoic acid], in data set [1], the concentration at 15 day was 0.3 ± 0.1 µM, the concentration at 0 h worked out at 0.3 ± 0.1 µM and the concentration at 24 h was determined as 0.2 ± 0.1 µM.
Turning to `O=C(O)c1cc(O)ccc1O` [2,5-Dihydroxybenzoic acid], in data set [1], the concentration at 15 day stood at 7.9 ± 2.7 µM, the concentration at 0 h stood at 6.7 ± 1.6 µM and the concentration at 24 h was 4.9 ± 1 µM.
`O=C(O)c1ccc(O)c(O)c1` [3,4-Dihydroxybenzoic acid]: in data set [1], the concentration at 15 day came to 0.8 ± 0.2 µM, the concentration at 0 h stood at 2.4 ± 0.7 µM and the concentration at 24 h is 1.1 ± 0.3 µM.
`O=C(O)Cc1ccc(O)c(O)c1` [3,4-Dihydroxyphenylacetic acid]: in data set [1], the concentration at 15 day is 3.8 ± 0.4 µM, the concentration at 0 h amounted to 8 ± 1.6 µM and the concentration at 24 h was determined as 4.5 ± 0.8 µM.
`O=C(O)CCc1cccc(O)c1` [3-Hydroxyphenylpropanoic acid]: in data set [1] (in vivo), the “Concentration in fasting urine, Mean ± std Error, 0 h (Fasting)” value is 3.1 ± 0.8 µM; the “Concentration in fasting urine, Mean ± std Error, 15 Days (Fasting)” value came to 4.4 ± 1.9 µM; the “Concentration in fasting urine, Mean ± std Error, 24 h (Fasting)” value was 2.0 ± 0.3 µM.
`O=C(O)c1ccc(O)cc1` [4-Hydroxybenzoic acid]: in data set [1], the concentration at 15 day amounted to 5.4 ± 0.8 µM, the concentration at 0 h came out at 6.1 ± 1 µM and the concentration at 24 h stood at 5.9 ± 0.9 µM.
For `O=C(O)Cc1ccc(O)cc1` [4-Hydroxyphenylacetic acid], in data set [1] (in vivo), the “Concentration in fasting urine, Mean ± std Error, 0 h (Fasting)” value came to 4.2 ± 1.3 µM; the “Concentration in fasting urine, Mean ± std Error, 15 Days (Fasting)” value is 3.0 ± 0.9 µM; the “Concentration in fasting urine, Mean ± std Error, 24 h (Fasting)” value was 2.6 ± 0.6 µM.
Taken in the same sequence, the figures for `Cc1ccc(C(=O)NCC(=O)O)cc1` [4-Methylhippuric acid] were 2.0 ± 1.0 µM, 1.2 ± 0.4 µM and 1.5 ± 0.9 µM.
`O=C(O)/C=C/c1ccc(O)c(O)c1` [Caffeic acid]: the “Concentration in fasting urine, Mean ± std Error, 24 h (Fasting)” value in data set [1] (human fasting urine, 24 h after single-time MP beverage intake) is given as “Not detected”. In data set [1], the concentration at 15 day amounted to 0.1 µM and the concentration at 0 h worked out at 0.1 µM.
As to `Oc1ccccc1O` [Catechol], in data set [1], the concentration at 15 day was 15.1 ± 4 µM, the concentration at 0 h amounted to 18.7 ± 12.2 µM and the concentration at 24 h worked out at 15.7 ± 4.1 µM.
As for `O=Cc1ccc(O)cc1` [Compound 4-Hydroxybenzaldehyde], in data set [1], the concentration at 15 day was 0.2 µM, the concentration at 0 h is 0.2 ± 0.1 µM and the concentration at 24 h was 0.2 µM.
The Cmax is the maximum level reached in the sampled fluid or tissue. As for `O=C(O[C@@H]1O[C@H](CO)[C@@H](O)[C@H](O)[C@H]1O)c1cc(O)c(O)c(O)c1` [Compound C2], in the data set “clinical” (human, in vivo), the Cmax worked out at 0.0134 ± 0.0019 µM and the Tmax is reported as 2.4 ± 0.3 h. Besides, in the data set “clinical” (human, in vivo, 100 mg), the Cmax was 0.0021 ± 0.0003 µM. Moreover, in the data set “clinical” (in vivo), the “difference in plasma concentrations/areas after MP + VC beverage compared to MP beverage alone” value is “not statistically significant” and the “time within which absorbed” value lay in the range of 1 to 2 h.
As to `O=S(=O)(O)Oc1cccc(O)c1O` [Compound C8], in “clinical” (setting [2]), the maximum concentration (Cmax) is 2.56 ± 0.894 µM. In “clinical” (setting [3]), the “AUC0–24h” value was 5.5049 ± 1.7634 µM·h. Also, in the data set “clinical” (human, in vivo), the “AUC0–24h” value was 18.8521 ± 3.4916 µM·h, the Cmax was found to be 10 ± 1.78 µM and the Tmax worked out at 7.3 ± 0.6 h.
For the molecule `O=C(O)[C@H]1O[C@@H](Oc2ccccc2O)[C@H](O)[C@@H](O)[C@@H]1O` [Compound C10, catechol glucuronide], the Cmax in the data set “clinical” (human plasma, 0−24 h, after MP (mango pulp 500 g) beverage, mean ± standard error, n = 13, read-out: Cmax) amounted to 0.472 ± 0.27 µM; in the data set “clinical” (human plasma, 0−24 h, after MP + VC (mango pulp 500 g + vitamin C 100 mg) beverage, mean ± standard error, read-out: Cmax), 0.186 ± 0.0458 µM; in the data set “clinical” (setting [2]), 0.0106 ± 0.0032 µM. The “AUC0–24h” value in “clinical” (setting [4]) was 0.4833 ± 0.108 µM·h; in “clinical” (human plasma, after MP beverage, linear trapezoidal method, mean ± standard error) it was 1.8309 ± 1.391 µM·h; in the data set “clinical” (setting [3]), 0.0448 ± 0.0051 µM·h. Also, the Tmax amounted to 8.3 ± 0.4 h in the data set “clinical” (setting [4]) and 8.0 ± 0.6 h in “clinical” (human plasma, after MP beverage, mean ± standard error).
Turning to `O=c1c2cc(O)c(O)cc2oc2cc(O)c([C@@H]3O[C@H](CO)[C@@H](O)[C@H](O)[C@H]3O)c(O)c12` [Compound C11, mangiferin], in the data set “clinical” (after mango intake), the “time within which cleared from the bloodstream” value lay in the range of 6 to 8 h. In “clinical” (area vs. time profile 0−24 h), the “content in plasma (as observed from areas) after MP and MP + VC vs. VC beverage alone” value is “significantly higher”. Also, the “plasma concentration relative to limit of quantitation” value in the data set “clinical” (human plasma after test beverages intake) was “below the LOQ”. The Tmax in the data set “clinical” (human, plasma, oral, 500 g, after mango intake, read-out: time to reach maximum concentration/area in plasma) was in the range of 1 to 2 h. For the same molecule, the “difference in plasma concentrations/areas after MP + VC beverage compared to MP beverage alone” value in the data set “clinical” (increase observed, statistical outcome) was “not statistically significant”.
With `COc1cc(/C=C/C(=O)O)ccc1O` [Ferulic acid], in data set [1] (in vivo), the “Concentration in fasting urine, Mean ± std Error, 0 h (Fasting)” value turned out to be 0.5 ± 0.1 µM; the “Concentration in fasting urine, Mean ± std Error, 15 Days (Fasting)” value is 0.4 ± 0.1 µM; the “Concentration in fasting urine, Mean ± std Error, 24 h (Fasting)” value came to 0.4 ± 0.1 µM.
As for `O=C(O)CNC(=O)c1ccccc1` [Hippuric acid], in data set [1], the concentration at 15 day was determined as 2020 ± 242 µM and the concentration at 24 h was determined as 3710 ± 582 µM.
Take `COC(=O)CNC(=O)c1ccccc1` [Methyl hippurate]: in data set [1] (in vivo), the “Concentration in fasting urine, Mean ± std Error, 0 h (Fasting)” value came out at 2.8 ± 2.3 µM; the “Concentration in fasting urine, Mean ± std Error, 15 Days (Fasting)” value was found to be 6.3 ± 1.7 µM; the “Concentration in fasting urine, Mean ± std Error, 24 h (Fasting)” value was determined as 7.8 ± 2.1 µM.
For the molecule `COc1cc(C(=O)O)cc(OC)c1O` [Syringic acid], in data set [1], the concentration at 15 day stood at 1.7 ± 0.2 µM, the concentration at 0 h was determined as 3.6 ± 0.4 µM and the concentration at 24 h was 5.9 ± 0.8 µM.
Take `COc1cc(C(=O)O)ccc1O` [Vanillic acid]: in data set [1], the concentration at 15 day worked out at 4.1 ± 1 µM, the concentration at 0 h is 4.9 ± 0.9 µM and the concentration at 24 h stood at 4.4 ± 0.7 µM.
With `O=C(O)/C=C/c1cccc(O)c1` [m-Coumaric acid], in data set [1] (in vivo), the “Concentration in fasting urine, Mean ± std Error, 0 h (Fasting)” value worked out at 0.8 ± 0.1 µM; the “Concentration in fasting urine, Mean ± std Error, 15 Days (Fasting)” value came to 0.7 ± 0.1 µM; the “Concentration in fasting urine, Mean ± std Error, 24 h (Fasting)” value was found to be 0.7 ± 0.1 µM.
As for `O=C(O)/C=C/c1ccccc1O` [o-Coumaric acid], in data set [1], the concentration at 15 day was 0.5 ± 0.1 µM, the concentration at 0 h came to 0.9 ± 0.1 µM and the concentration at 24 h was 0.9 µM.
Consider `O=C(O)C=Cc1ccc(O)cc1` [p-Coumaric acid], for which, in data set [1], the concentration at 15 day is 0.3 µM, the concentration at 0 h amounted to 0.5 ± 0.1 µM and the concentration at 24 h worked out at 0.4 ± 0.1 µM.
